Test results from patent US20220062240A1, “METHODS OF TREATING CANCER USING A CLK INHIBITOR” (BioSplice Therapeutics, Inc., priority 2018, published 2022).
Where two headings read alike, the source gives them in different places.

Columns and labels:
CLK2 = molecular target: T1, CLK2 (Homo sapiens, UniProt P49760); assay: CLK2 kinase activity assay (Z-lyte, Ser/Thr 6 peptide); assay type: biochemical; conditions: recombinant CLK2 kinase, ATP 60 μM; read-out: EC50
T1 construct: purchased Thermo Fisher (Life Technologies), Z'-LYTE Kinase Assay Kits
Experimental: All reactions were performed in duplicate.

BT-549 = assay: CellTiter-Glo Viability Assay, breast cancer; assay type: cell-based; conditions: Homo sapiens, 96 h; BT-549, breast cancer, four days; read-out: EC50
CAMA1 = assay: CellTiter-Glo Viability Assay, breast cancer; assay type: cell-based; conditions: Homo sapiens, CAMA-1, 96 h; CAMA1, breast cancer, four days; read-out: EC50
DU4475 = assay: CellTiter-Glo Viability Assay, breast cancer; assay type: cell-based; conditions: Homo sapiens, DU-4475, 96 h; DU4475, breast cancer, four days; read-out: EC50
HCC1599 = assay: CellTiter-Glo Viability Assay, breast cancer; assay type: cell-based; conditions: Homo sapiens, 96 h; HCC1599, breast cancer, four days; read-out: EC50
MCF7 = assay: CellTiter-Glo Viability Assay, breast cancer; assay type: cell-based; conditions: Homo sapiens, 96 h; MCF7, breast cancer, four days; read-out: EC50
MDA-MB-231-Luc = assay: CellTiter-Glo Viability Assay, breast cancer; assay type: cell-based; conditions: Homo sapiens, 96 h; MDA-MB-231-Luc, breast cancer, four days; read-out: EC50
T47D = assay: CellTiter-Glo Viability Assay, breast cancer; assay type: cell-based; conditions: Homo sapiens, 96 h, breast cancer, four days, read-out: EC50
ZR-75-1 = assay: CellTiter-Glo Viability Assay, breast cancer; assay type: cell-based; conditions: Homo sapiens, 96 h; ZR-75-1, breast cancer, four days; read-out: EC50
all 50 cell lines = assay: CellTiter-Glo Viability Assay, average across all cell lines; assay type: cell-based; conditions: Homo sapiens; across all 50 cell lines; read-out: average EC50 for inhibition of cancer cell proliferation
In short: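 Cells were plated at 300-3,000 per well in their own media, then treated with compound in duplicate, with DMSO wells as controls. After four days at 37° C and 5% CO2, CellTiter-Glo was added, and luminescence was read. EC50s were fitted.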

[1] = test system: colorectal cancer (6 cell lines); assay: CellTiter-Glo Viability Assay, colorectal cancer; assay type: cell-based; conditions: Homo sapiens, inhibition of cancer cell proliferation
[2] = test system: haematopoietic & lymphoid tumors (13 cell lines); assay: CellTiter-Glo Viability Assay, haematopoietic & lymphoid tumors; assay type: cell-based; conditions: Homo sapiens, inhibition of cancer cell proliferation
[3] = test system: liver cancer (3 cell lines); assay: CellTiter-Glo Viability Assay, liver cancer; assay type: cell-based; conditions: Homo sapiens, inhibition of cancer cell proliferation
[4] = test system: lung cancer (4 cell lines); assay: CellTiter-Glo Viability Assay, lung cancer; assay type: cell-based; conditions: Homo sapiens, inhibition of cancer cell proliferation
[5] = test system: ovarian cancer (4 cell lines); assay: CellTiter-Glo Viability Assay, ovarian cancer; assay type: cell-based; conditions: Homo sapiens, inhibition of cancer cell proliferation
[6] = test system: pancreatic cancer (8 cell lines); assay: CellTiter-Glo Viability Assay, pancreatic cancer; assay type: cell-based; conditions: Homo sapiens, inhibition of cancer cell proliferation
[7] = test system: prostate cancer (5 cell lines); assay: CellTiter-Glo Viability Assay, prostate cancer; assay type: cell-based; conditions: Homo sapiens
CLK3 = CLK3 (Homo sapiens, UniProt P49761); assay: CLK3 kinase activity assay (Z-lyte, Ser/Thr 18 peptide)
[8] = HCT-116, HCT116 cell line, read-out: Colorectal cancer, EC50 (μM) HCT116
[9] = HT-29, HT29 cell line, read-out: Colorectal cancer, EC50 (μM) HT29
[10] = SW-620, SW620 cell line, read-out: Colorectal cancer, EC50 (μM) SW620
[11] = DLD-1 cell line, read-out: Colorectal cancer, EC50 (μM) DLD-1
[12] = SW48 cell line, read-out: Colorectal cancer, EC50 (μM) SW48
[13] = SW480 cell line, read-out: Colorectal cancer, EC50 (μM) SW480
[14] = DND41, DND-41 cell line, read-out: Haematopoietic & Lymphoid tumors, EC50 (μM) DND-41
[15] = MV4-11, MV-4-11 cell line, read-out: Haematopoietic & Lymphoid tumors, EC50 (μM) MV-4-11
[16] = Rec1, REC-1 cell line, read-out: Haematopoietic & Lymphoid tumors, EC50 (μM) REC-1
[17] = SU-DHL-4, SUDHL4 cell line, read-out: Haematopoietic & Lymphoid tumors, EC50 (μM) SUDHL4
[18] = HL-60 cell line, read-out: Haematopoietic & Lymphoid tumors, EC50 (μM) HL-60
[19] = JM1 cell line, read-out: Haematopoietic & Lymphoid tumors, EC50 (μM) JM1
[20] = JURKAT, Clone E6-1 cell line, read-out: Haematopoietic & Lymphoid tumors, EC50 (μM) JURKAT, Clone E6-1
[21] = JeKo-1 cell line, read-out: Haematopoietic & Lymphoid tumors, EC50 (μM) JeKo-1
[22] = KASUMI-1 cell line, read-out: Haematopoietic & Lymphoid tumors, EC50 (μM) KASUMI-1
[23] = Loucy cell line, read-out: Haematopoietic & Lymphoid tumors, EC50 (μM) Loucy
[24] = MOLT-4 cell line, read-out: Haematopoietic & Lymphoid tumors, EC50 (μM) MOLT-4
[25] = TF-1 cell line, read-out: Haematopoietic & Lymphoid tumors, EC50 (μM) TF-1
[26] = TOLEDO cell line, read-out: Haematopoietic & Lymphoid tumors, EC50 (μM) TOLEDO
[27] = SNU-398, SNU398 cell line, read-out: Liver cancer, EC50 SNU398
[28] = HEPG2 cell line, read-out: Liver cancer, EC50 HEPG2
[29] = PLC/PRF/5 cell line, read-out: Liver cancer, EC50 PLC/PRF/5
[30] = A-427, A427 cell line, read-out: Lung cancer, EC50 (μM) A427
[31] = HCC78, HCC-78 cell line, read-out: Lung cancer, EC50 (μM) HCC-78
[32] = NCI-H460 cell line, read-out: Lung cancer, EC50 (μM) NCI-H460
[33] = NCI-H522 cell line, read-out: Lung cancer, EC50 (μM) NCI-H522
[34] = PA-1, PA1 cell line, read-out: Ovarian cancer, EC50 (μM) PA1
[35] = TOV112D, TOV-112D cell line, read-out: Ovarian cancer, EC50 (μM) TOV-112D
[36] = OV-90 cell line, read-out: Ovarian cancer, EC50 (μM) OV-90
[37] = OVCAR-3 cell line, read-out: Ovarian cancer, EC50 (μM) OVCAR-3
[38] = BXPC-3, BxPC3 cell line, read-out: Pancreatic cancer, EC50 BxPC3
[39] = CAPAN-1, Capan1 cell line, read-out: Pancreatic cancer, EC50 Capan1
[40] = Capan-2, Capan2 cell line, read-out: Pancreatic cancer, EC50 Capan2
[41] = MIA PaCa-2 cell line, read-out: Pancreatic cancer, EC50 MIA PaCa-2
[42] = PANC 05.04 cell line, read-out: Pancreatic cancer, EC50 PANC 05.04
[43] = PANC-1 cell line, read-out: Pancreatic cancer, EC50 PANC-1
[44] = UPAFII cell line, read-out: Pancreatic cancer, EC50 UPAFII
[45] = DU-145, read-out: Prostate cancer EC50 Du-145
[46] = PC-3, PC3 cell line, inhibition of cancer cell proliferation, read-out: Prostate cancer EC50 PC3
[47] = 22Rv1 cell line, inhibition of cancer cell proliferation, read-out: Prostate cancer EC50 22Rv1
[48] = LNCap clone FGC cell line, inhibition of cancer cell proliferation, read-out: Prostate cancer EC50 LNCap clone FGC
[49] = VCaP (Sigma) cell line, inhibition of cancer cell proliferation, read-out: Prostate cancer EC50 VCaP (Sigma)

T1 sequence (P49760 whole entry): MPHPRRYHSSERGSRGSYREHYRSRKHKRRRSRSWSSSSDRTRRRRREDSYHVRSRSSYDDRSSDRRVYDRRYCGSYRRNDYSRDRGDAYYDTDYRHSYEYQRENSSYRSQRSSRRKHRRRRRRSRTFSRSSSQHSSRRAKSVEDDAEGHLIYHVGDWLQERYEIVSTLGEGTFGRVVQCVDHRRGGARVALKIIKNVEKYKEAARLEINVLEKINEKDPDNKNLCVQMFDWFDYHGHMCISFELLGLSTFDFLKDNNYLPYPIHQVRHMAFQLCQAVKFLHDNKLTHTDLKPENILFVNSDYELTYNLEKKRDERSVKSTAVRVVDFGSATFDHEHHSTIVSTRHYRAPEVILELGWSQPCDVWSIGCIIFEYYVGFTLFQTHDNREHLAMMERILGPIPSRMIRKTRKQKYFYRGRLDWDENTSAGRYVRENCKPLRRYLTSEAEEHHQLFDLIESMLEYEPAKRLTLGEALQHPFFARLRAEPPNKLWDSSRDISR
Chain of CLK3 (P49761 whole entry): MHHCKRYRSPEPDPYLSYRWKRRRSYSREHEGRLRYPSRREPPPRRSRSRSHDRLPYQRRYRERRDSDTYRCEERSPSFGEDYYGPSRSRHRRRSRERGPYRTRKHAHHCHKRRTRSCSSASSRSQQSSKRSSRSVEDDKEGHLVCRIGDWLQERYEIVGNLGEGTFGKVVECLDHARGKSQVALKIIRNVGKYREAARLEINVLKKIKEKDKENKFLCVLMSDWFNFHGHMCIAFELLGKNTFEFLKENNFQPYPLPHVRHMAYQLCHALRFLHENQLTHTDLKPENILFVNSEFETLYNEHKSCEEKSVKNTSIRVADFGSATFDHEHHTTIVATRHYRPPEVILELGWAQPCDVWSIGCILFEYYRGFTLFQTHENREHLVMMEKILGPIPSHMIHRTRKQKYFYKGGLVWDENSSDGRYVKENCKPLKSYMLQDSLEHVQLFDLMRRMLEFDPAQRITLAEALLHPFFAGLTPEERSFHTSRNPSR

## CN(C)C1CN(c2cc(C(=O)Nc3cc4cc(-c5cnn(C)c5)ccc4cn3)ccn2)C1 [Compound 70]
CLK2
  EC50: 0.0016 µM
BT-549
  EC50: 0.496 µM
CAMA1
  EC50: 0.788 µM
DU4475
  EC50: 0.624 µM
HCC1599
  EC50: 0.51 µM
MCF7
  EC50: 2.15 µM
MDA-MB-231-Luc
  EC50: 0.891 µM
T47D
  EC50: 1.35 µM
ZR-75-1
  EC50: 1.12 µM
All 50 cell lines
  EC50: 0.75 µM
[1]; [8]
  EC50: 0.465 µM
[1]; [9]
  EC50: 1.09 µM
[1]; [10]
  EC50: 0.352 µM
[1]; [11]
  EC50: 0.481 µM
[1]; [12]
  EC50: 0.285 µM
[1]; [13]
  EC50: 0.739 µM
[2]; [14]
  EC50: 0.774 µM
[2]; [15]
  EC50: 0.193 µM
[2]; [16]
  EC50: 0.189 µM
[2]; [17]
  EC50: 0.899 µM
[2]; [18]
  EC50: 1.24 µM
[2]; [19]
  EC50: 0.273 µM
[2]; [20]
  EC50: 0.863 µM
[2]; [21]
  EC50: 0.347 µM
[2]; [22]
  EC50: 0.555 µM
[2]; [23]
  EC50: 0.617 µM
[2]; [24]
  EC50: 0.643 µM
[2]; [25]
  EC50: 0.785 µM
[2]; [26]
  EC50: 0.25 µM
[3]; [27]
  EC50: 0.205 µM
[3]; [28]
  EC50: 0.75 µM
[3]; [29]
  EC50: 1.47 µM
[4]; [30]
  EC50: 0.605 µM
[4]; [31]
  EC50: 1.12 µM
[4]; [32]
  EC50: 1.13 µM
[4]; [33]
  EC50: 0.389 µM
[5]; [34]
  EC50: 0.585 µM
[5]; [35]
  EC50: 0.593 µM
[5]; [36]
  EC50: 1.45 µM
[5]; [37]
  EC50: 0.37 µM
[6]; [38]
  EC50: 0.94 µM
[6]; [39]
  EC50: 0.702 µM
[6]; [40]
  EC50: 1.14 µM
[6]; [41]
  EC50: 0.461 µM
[6]; [42]
  EC50: 0.713 µM
[6]; [43]
  EC50: 1.22 µM
[6]; [44]
  EC50: 0.385 µM
[7]; [45]
  EC50: 0.806 µM
[7]; [46]
  EC50: 0.701 µM
[7]; [47]
  EC50: 0.612 µM
[7]; [48]
  EC50: 1.08 µM
[7]; [49]
  EC50: 1.06 µM
CLK3
  EC50: 0.0245 µM

## CN1CCC2(CC1)CN(c1cc(C(=O)Nc3cc4cc(-c5cnn(C)c5)ccc4cn3)ccn1)C2 [Compound 71]
CLK2
  EC50: 0.0011 µM
BT-549
  EC50: 0.215 µM
CAMA1
  EC50: 0.307 µM
DU4475
  EC50: 0.14 µM
HCC1599
  EC50: 0.177 µM
MCF7
  EC50: 0.86 µM
MDA-MB-231-Luc
  EC50: 0.292 µM
T47D
  EC50: 0.493 µM
ZR-75-1
  EC50: 0.365 µM
All 50 cell lines
  EC50: 0.232 µM
[1]; [8]
  EC50: 0.105 µM
[1]; [9]
  EC50: 0.247 µM
[1]; [10]
  EC50: 0.068 µM
[1]; [11]
  EC50: 0.137 µM
[1]; [12]
  EC50: 0.052 µM
[1]; [13]
  EC50: 0.145 µM
[2]; [14]
  EC50: 0.191 µM
[2]; [15]
  EC50: 0.056 µM
[2]; [16]
  EC50: 0.061 µM
[2]; [17]
  EC50: 0.208 µM
[2]; [18]
  EC50: 0.432 µM
[2]; [19]
  EC50: 0.054 µM
[2]; [20]
  EC50: 0.431 µM
[2]; [21]
  EC50: 0.062 µM
[2]; [22]
  EC50: 0.129 µM
[2]; [23]
  EC50: 0.146 µM
[2]; [24]
  EC50: 0.2 µM
[2]; [25]
  EC50: 0.368 µM
[2]; [26]
  EC50: 0.073 µM
[3]; [27]
  EC50: 0.048 µM
[3]; [28]
  EC50: 0.165 µM
[3]; [29]
  EC50: 0.459 µM
[4]; [30]
  EC50: 0.198 µM
[4]; [31]
  EC50: 0.304 µM
[4]; [32]
  EC50: 0.248 µM
[4]; [33]
  EC50: 0.095 µM
[5]; [34]
  EC50: 0.209 µM
[5]; [35]
  EC50: 0.117 µM
[5]; [36]
  EC50: 0.334 µM
[5]; [37]
  EC50: 0.092 µM
[6]; [38]
  EC50: 0.383 µM
[6]; [39]
  EC50: 0.225 µM
[6]; [40]
  EC50: 0.344 µM
[6]; [41]
  EC50: 0.09 µM
[6]; [42]
  EC50: 0.289 µM
[6]; [43]
  EC50: 0.352 µM
[6]; [44]
  EC50: 0.14 µM
[7]; [45]
  EC50: 0.252 µM
[7]; [46]
  EC50: 0.205 µM
[7]; [47]
  EC50: 0.232 µM
[7]; [48]
  EC50: 0.333 µM
[7]; [49]
  EC50: 0.466 µM
CLK3
  EC50: 0.0162 µM
